# According to US8492614B2, “Plant biochemical systems and uses thereof” (The Board of Trustees of the University of Illinois, priority 2007, dated 2013):
# Entries after “also recorded” stand apart in the source; their conditions may differ.
# Columns and labels:
# Japanese beetles = assay: Predation on Harosoy soybean grown outside, with or without Phe in the planting media; assay type: in vivo; conditions: 1 mM Phe in planting media; 300 nm or no light on day 3; 21 d outside; listed as Phe
# Procedure: As Phe is the starting substrate of the phenylpropanoid pathway it may be that inclusion of Phe in the growth media of young seedlings allows for the synthesis of many phenylpropanoids in addition to those that can act as UV-B screening pigments, and thereby prevent the deleterious effects other abiotic and biotic stress. To test this hypothesis we planted sets of seeds of Harosoy dense and Harosoy glabrous. Planting media for one set of plants of each isoline was supplemented with 1 mM final concentration of Phe. Three d after planting, germinating sets of seedlings were irradiated with a low fluence pulse of 300 nm (i.e. an abiotic stress), or no light (Untreated), then transplanted outside to grow in natural conditions for 21 d during the normal growing season. A random planting pattern for was generated for the six One leaf from the first set of leaves and one leaf (the middle of the trifoliate) from the second set of leaves was harvested on day 21. These leaves were each weighed directly (fresh weight) and scanned to have a pictorial representation of the experienced damage as shown in FIG. 28. […] Comparison among the six variations indicates predation mainly on the glabrous (hairless) plants.
# [1] = test system: etiolated Arabidopsis seedlings; assay: Cotyledon natural fluorescence by deconvoluting microscopy; assay type: in vivo; conditions: 1.0 mM Phe in medium; salt stress; mutant seedlings; listed as Phe
# Procedure: Fluorescent images were obtained of living unfixed seedlings 24 h post BL or ABA treatment as described in the “Plant Growth and Preparation of Tissue” section. Optical sectioning was achieved by using a Zeiss Axiovert 200M microscope (Carl Zeiss), equipped with ApoTome (collected by grid projection), and a digital camera and the 4#,6-diamino-phenylindole, fluorescein isothiocyanate, and Texas Red filter sets (Chroma). Photographs of whole cotyledon fluorescence were snapped on the same microscope set up, minus the apoTome setting.
# The preparation of whole cell extracts from the areal portions of the seedlings for the quantification of Phe levels and PD1 activity levels is described in (Warpeha et al., Plant Physiol. 143:1590-1600, 2007). Phe concentration is determined by HPLC. […] Natural fluorescence of the cotyledons is visualized and quantitated by deconvoluting microscopy using a “DAPI-Long Pass” filter which allows excitation between 300-380 nm and emits with a cutoff […] 400 nm.
# If the Phe produced by activated PD1 is necessary for the ability of young etiolated seedlings to respond to UV-B, salt or heat stress, then it is possible that the addition of exogenous Phe (effectively cross feeding Phe) could restore a wild type response to GCR1, GPA1 and PD1 mutants when assayed for cotyledon fluorescence and the ability to survive sub-lethal levels of UV-C. To determine if exogenous Phe can restore wild type responses to GCR1, GPA, and PD1 mutants, 1 mM Phe is added to the top agar during planting and the experiment described above specifically testing for cotyledon surface fluorescence and the ability to survive sub-lethal levels of UV-C is repeated. Serine and […] are used as negative controls in these assays.
# The experiments described above for examining if GCR1, GPA1 and PD1 are required for young etiolated seedlings to respond to UV-B, salt or heat stress are performed but with ABA, ACC, JA and SA substituting for UV-B, salt and heat. For these experiments, ABA is tested at 1.0 μM dissolved in ethanol and applied as an atomized mist. […]
structure (smiles),measurement,setting,value
N[C@@H](Cc1ccccc1)C(=O)O [phenylalanine],predation on leaves,Japanese beetles,experienced less predation; also recorded: can be reduced
same,restoration of cotyledon surface fluorescence in mutants,[1],can restore the responses in the mutants to those observed for wild type seedlings; also recorded: can restore wild type responses to AGB1 and AGG1 mutants
